Key:
[1] = biological target: Tyk-2 (Homo sapiens (Human), UniProt P29597); test: Tyk-2 enzyme activity assay (Thermo Fisher SelectScreen, Z-lyte); format: biochemical; settings: read-out: Tyk-2 Inhibition IC50
Method in brief: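 Z-lyte FRET assay: 3.75–15 ng TYK2 with […] Tyr 03 peptide in HEPES pH 7.0, MgCl2, EGTA, BRIJ-35; 1 h reaction, then development reagent. 11-point dose-response, 2% DMSO; IC50 via 4-parameter fit of emission ratio, background without enzyme.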

[2] = test system: IL-12 stimulated STAT4 phosphorylation on Tyr693 (JAK2/TYK2); test: JAK2/TYK2 cellular target modulation: IL-12 stimulated phospho-STAT4 in PBMC; format: cell-based; settings: human PBMC, IL-12 1.7 ng/ml; read-out: IL12-STAT4 IC50
Description: JAK Cellular Target Modulation Assays
Target modulation was based upon the ability of a compound to inhibit JAK isoform specific phosphorylation of selected substrates. IL-2 stimulated STAT5 phosphorylation on Tyr694 was used to assess JAK1/3 compound selectivity. GM-CSF stimulated STAT5 phosphorylation on Tyr694 was used to assess JAK2 compound selectivity. IFNγ stimulated STAT1 phosphorylation on Tyr701 was used to assess JAK1/2 compound selectivity. IL-12 stimulated STAT4 phosphorylation on Tyr693 was used to assess JAK2/TYK2 compound selectivity. For all four assays, human PBMC from frozen stocks were thawed, pelleted, resuspended in complete media (90% RPMI, 10% heat inactivated FBS, 10 mM HEPES, 47 μM 2-ME, pen/strep) and placed in wells of a 96 well V-bottom plate at 200,000 per well in 120 μl complete media. Compounds were added as 15 μl per well of 10× working stock solutions in complete media with 1% DMSO (or medium with 1% DMSO for controls) and placed on a plate shaker in a 37° C. incubator with 5% CO2 for 1 hour with gentle shaking (setting of 3). Stimulation used the addition of soluble cytokines. For the JAK1/3 phospho-STAT5 assay, 15 μl of 10× working stock recombinant human IL-2 was added to a final concentration of 25 ng/ml. For the JAK2 phospho-STAT5 assay, 15 μl of 10× working stock recombinant human GM-CSF was added to a final concentration of 5 ng/ml. For the JAK1/2 phospho-STAT1 assay, 15 μl of 10× working stock of recombinant human IFNγ was added to a final concentration of 10 ng/ml. For the JAK2/TYK2 phospho-STAT4 assay, 15 μl of 10× working stock of recombinant human IL-12 was added to a final concentration of 1.7 ng/ml. Plates were then placed back on the plate shaker in the incubator for an additional 5, 5, 10, and 25 minutes respectively upon which the plates were removed from the incubator, sealed with a plate sealer and the cells pelleted at 400×g for 5 minutes. After pelleting, the media was removed by aspiration and the cells were lysed in assay specific cell lysis buffer. The levels of phospho-STATS were determined using a Phospho (Tyr694) STAT5a,b Whole Cell Lysate kit from Meso Scale Discovery. Levels of phospho-STAT1 were determined using a CST-PathScan Phospho-STAT1 (Tyr701) Sandwich ELISA kit. Levels of phospho-STAT4 were determined using a Phospho-STAT4 (Tyr693) Whole Cell Lysate kit from Meso Scale Discovery.

[3] = biological target: JAK3 (a.a. 781-1124) (Homo sapiens (Human), UniProt P52333); test: JAK3 enzyme activity assay (SRCtide phosphorylation, Caliper); format: biochemical; settings: 1 uM ATP; read-out: JAK3 Inhibition IC50
JAK3 (a.a. 781-1124), sequence (P52333 781-1124): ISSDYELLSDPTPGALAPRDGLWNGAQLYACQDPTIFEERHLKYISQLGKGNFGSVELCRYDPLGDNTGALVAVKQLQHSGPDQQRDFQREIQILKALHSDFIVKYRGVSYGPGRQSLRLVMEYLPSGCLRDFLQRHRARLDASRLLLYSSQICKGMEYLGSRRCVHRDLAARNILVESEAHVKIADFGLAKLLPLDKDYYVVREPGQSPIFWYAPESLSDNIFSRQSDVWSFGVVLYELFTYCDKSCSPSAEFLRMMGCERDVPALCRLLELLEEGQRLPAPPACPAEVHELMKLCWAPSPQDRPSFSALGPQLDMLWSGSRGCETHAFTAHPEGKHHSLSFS

[4] = biological target: JAK2 (Homo sapiens (Human), UniProt O60674); test: JAK2 enzyme activity assay (Thermo Fisher SelectScreen, Z-lyte); format: biochemical; settings: read-out: JAK2 Inhibition IC50
JAK2, sequence (O60674 whole entry): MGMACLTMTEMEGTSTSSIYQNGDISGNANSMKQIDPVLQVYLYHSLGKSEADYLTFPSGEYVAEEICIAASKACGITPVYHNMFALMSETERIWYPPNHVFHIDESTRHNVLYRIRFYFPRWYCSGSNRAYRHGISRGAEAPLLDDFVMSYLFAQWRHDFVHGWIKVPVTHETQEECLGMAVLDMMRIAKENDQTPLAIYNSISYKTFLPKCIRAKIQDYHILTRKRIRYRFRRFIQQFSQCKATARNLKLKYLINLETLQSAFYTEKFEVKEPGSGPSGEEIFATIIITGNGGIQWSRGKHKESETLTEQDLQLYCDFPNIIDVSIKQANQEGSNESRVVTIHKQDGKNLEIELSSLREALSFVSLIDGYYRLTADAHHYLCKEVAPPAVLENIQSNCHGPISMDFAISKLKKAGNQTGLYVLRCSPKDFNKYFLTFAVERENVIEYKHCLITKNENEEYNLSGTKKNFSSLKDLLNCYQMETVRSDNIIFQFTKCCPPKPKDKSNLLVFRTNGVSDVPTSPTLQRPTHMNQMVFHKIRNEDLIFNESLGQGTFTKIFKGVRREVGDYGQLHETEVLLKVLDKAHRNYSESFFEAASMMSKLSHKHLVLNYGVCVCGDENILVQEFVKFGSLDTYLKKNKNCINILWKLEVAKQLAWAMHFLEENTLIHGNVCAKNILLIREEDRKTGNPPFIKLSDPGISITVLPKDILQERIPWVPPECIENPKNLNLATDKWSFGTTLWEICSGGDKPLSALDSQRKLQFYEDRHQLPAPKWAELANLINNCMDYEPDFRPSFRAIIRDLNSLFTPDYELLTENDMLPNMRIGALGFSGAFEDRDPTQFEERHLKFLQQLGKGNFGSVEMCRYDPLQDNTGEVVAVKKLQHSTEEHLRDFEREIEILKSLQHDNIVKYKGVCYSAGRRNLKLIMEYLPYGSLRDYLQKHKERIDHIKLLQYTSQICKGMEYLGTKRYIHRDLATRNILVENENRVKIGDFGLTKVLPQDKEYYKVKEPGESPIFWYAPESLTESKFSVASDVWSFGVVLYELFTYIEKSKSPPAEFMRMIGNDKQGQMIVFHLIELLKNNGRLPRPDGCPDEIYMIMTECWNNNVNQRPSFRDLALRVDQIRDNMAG
Method in brief: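 Z-lyte FRET kinase assay: 0.12-0.5 ng JAK2 with […] Tyr 06 peptide in 50 mM HEPES pH 7.5, 0.01% BRIJ-35, 10 mM MgCl2, 1 mM EGTA, 1 h reaction before development reagent. 11-point dose-response from […] to 0.34 nM, 2% DMSO; IC50 from 4-parameter fit of emission ratio.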

[5] = test system: IL-2 stimulated STAT5 phosphorylation on Tyr694 (JAK1/3); test: JAK1/3 cellular target modulation: IL-2 stimulated phospho-STAT5 in PBMC; format: cell-based; settings: human PBMC, IL-2 25 ng/ml; read-out: IL2-STAT5 IC50
Method in brief: (§1)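 Thawed human PBMC (200,000/well, RPMI/10% FBS) were preincubated with compound for 1 h at 37 °C, added from 10× stocks in 1% DMSO. Stimulation and read-out: IL-2 25 ng/ml, 5 min, pSTAT5 by MSD; IL-12 1.7 ng/ml, 25 min, pSTAT4 by MSD; IFNγ 10 ng/ml, 10 min, pSTAT1 by sandwich ELISA.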

[6] = biological target: JAK1 (Homo sapiens (Human), UniProt P23458); test: JAK1 enzyme activity assay (Thermo Fisher SelectScreen, Z-lyte); format: biochemical; settings: read-out: JAK1 Inhibition IC50
JAK1, sequence (P23458 whole entry): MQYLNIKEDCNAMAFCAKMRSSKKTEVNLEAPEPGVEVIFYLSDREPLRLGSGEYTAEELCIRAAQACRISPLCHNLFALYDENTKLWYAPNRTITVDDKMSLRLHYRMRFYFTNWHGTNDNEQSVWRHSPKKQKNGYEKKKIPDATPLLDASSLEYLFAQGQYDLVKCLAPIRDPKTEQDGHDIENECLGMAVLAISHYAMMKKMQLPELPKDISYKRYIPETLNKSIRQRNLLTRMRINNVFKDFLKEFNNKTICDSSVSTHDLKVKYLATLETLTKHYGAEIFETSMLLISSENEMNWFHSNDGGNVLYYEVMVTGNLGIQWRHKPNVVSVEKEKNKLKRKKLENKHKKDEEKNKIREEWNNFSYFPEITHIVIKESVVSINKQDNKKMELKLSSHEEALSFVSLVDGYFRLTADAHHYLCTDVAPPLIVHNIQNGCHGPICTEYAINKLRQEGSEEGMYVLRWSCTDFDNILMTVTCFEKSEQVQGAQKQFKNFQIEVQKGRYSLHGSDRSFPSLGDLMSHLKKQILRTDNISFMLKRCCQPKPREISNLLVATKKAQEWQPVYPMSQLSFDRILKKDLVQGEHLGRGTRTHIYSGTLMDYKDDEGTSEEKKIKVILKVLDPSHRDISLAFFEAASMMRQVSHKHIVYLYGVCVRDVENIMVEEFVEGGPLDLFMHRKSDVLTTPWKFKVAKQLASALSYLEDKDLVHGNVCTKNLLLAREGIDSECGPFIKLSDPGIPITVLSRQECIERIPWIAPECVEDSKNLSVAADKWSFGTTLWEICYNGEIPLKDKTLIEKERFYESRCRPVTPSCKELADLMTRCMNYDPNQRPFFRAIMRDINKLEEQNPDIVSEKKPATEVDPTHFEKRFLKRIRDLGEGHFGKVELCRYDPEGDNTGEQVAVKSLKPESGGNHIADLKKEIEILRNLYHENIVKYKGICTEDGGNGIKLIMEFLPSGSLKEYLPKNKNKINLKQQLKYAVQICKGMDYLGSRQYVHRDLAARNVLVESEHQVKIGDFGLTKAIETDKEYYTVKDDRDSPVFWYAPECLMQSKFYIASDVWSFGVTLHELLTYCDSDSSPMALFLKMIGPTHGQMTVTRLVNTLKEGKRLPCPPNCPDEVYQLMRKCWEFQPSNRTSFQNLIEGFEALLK
Method in brief: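 Z-lyte assay with 21.2-91.5 ng JAK and […] Tyr 06 in 50 mM HEPES pH 7.0, 10 mM MgCl2, 1 mM EGTA, 0.01% BRIJ-35; 1 h kinase reaction, then development reagent. 11-point dose-response from […] to 0.34 nM, 2% DMSO vehicle; IC50 from 4-parameter logistic fit of emission ratio.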

[7] = test system: IFNγ stimulated STAT1 phosphorylation on Tyr701 (JAK1/2); test: JAK1/2 cellular target modulation: IFNγ stimulated phospho-STAT1 in PBMC; format: cell-based; settings: human PBMC, IFNγ 10 ng/ml; read-out: Infγ-STAT1 IC50
Method in brief: as §1

Tyk-2, sequence (P29597 whole entry): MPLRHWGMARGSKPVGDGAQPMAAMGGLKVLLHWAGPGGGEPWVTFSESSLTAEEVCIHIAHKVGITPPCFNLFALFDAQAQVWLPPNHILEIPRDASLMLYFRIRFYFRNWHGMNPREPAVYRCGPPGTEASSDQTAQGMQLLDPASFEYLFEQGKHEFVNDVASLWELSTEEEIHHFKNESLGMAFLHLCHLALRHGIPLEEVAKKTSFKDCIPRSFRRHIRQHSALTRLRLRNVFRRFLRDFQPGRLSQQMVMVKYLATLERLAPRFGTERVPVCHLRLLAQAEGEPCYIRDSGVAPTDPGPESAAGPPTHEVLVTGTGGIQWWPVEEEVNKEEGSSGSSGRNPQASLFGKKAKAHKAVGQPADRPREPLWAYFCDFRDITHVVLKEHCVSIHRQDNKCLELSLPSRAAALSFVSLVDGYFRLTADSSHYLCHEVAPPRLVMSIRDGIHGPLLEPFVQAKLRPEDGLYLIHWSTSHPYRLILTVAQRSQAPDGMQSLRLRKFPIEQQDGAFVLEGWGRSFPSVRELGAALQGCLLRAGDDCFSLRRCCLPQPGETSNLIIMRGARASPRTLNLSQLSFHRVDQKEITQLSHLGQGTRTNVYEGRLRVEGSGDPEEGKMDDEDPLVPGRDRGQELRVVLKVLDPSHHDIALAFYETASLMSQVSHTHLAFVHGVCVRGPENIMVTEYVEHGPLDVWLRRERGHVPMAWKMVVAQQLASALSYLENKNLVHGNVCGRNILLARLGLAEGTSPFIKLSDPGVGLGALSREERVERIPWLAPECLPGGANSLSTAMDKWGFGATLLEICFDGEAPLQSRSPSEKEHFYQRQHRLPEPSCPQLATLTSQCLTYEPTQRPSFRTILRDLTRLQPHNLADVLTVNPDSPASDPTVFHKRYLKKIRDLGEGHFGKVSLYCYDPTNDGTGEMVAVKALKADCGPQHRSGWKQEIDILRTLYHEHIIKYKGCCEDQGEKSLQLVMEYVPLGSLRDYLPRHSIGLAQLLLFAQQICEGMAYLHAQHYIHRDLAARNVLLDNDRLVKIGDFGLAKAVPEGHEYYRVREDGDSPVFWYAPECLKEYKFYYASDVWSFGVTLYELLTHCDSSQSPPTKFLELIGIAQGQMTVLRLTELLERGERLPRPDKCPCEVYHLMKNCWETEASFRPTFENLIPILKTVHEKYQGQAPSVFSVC

SMILES	IC50 [1] [nM]	IC50 [2] [nM]	IC50 [3] [nM]	IC50 [4] [nM]	IC50 [5] [nM]	IC50 [6] [nM]	IC50 [7] [nM]
Cc1cnc(-c2cnc3[nH]ccc3c2N[C@@H]2CCCN(C(=O)CC#N)C2)o1 [Example 36, (R)-3-(3-((5-(5-methyloxazol-2-yl)-1H-pyrrolo[2,3-b]pyridin-4-yl)amino)piperidin-1-yl)-3-oxopropanenitrile]	≤ 10	100 to 1000	≤ 10	≤ 10	≤ 100	≤ 10	≤ 100
Cc1cnc(-c2cnc3[nH]ccc3c2N[C@@H]2CCCN(CCC#N)C2)o1 [Example 37, (R)-3-(3-((5-(5-methyloxazol-2-yl)-1H-pyrrolo[2,3-b]pyridin-4-yl)amino)piperidin-1-yl)propanenitrile]	10 to 100	> 1000	≤ 10	10 to 100	≤ 100	≤ 10	100 to 1000
N#CCC(=O)N1CCC[C@@H](Nc2c(-c3ncon3)cnc3[nH]ccc23)C1 [Example 38, (R)-3-(3-((5-(1,2,4-oxadiazol-3-yl)-1H-pyrrolo[2,3-b]pyridin-4-yl)amino)piperidin-1-yl)-3-oxopropanenitrile]	100 to 1000	> 1000	10 to 100	10 to 100	100 to 1000	10 to 100	> 1000
C[C@H]1C[C@@H](Nc2c(-c3ccn(C(F)F)n3)cnc3[nH]ccc23)CN(C(=O)CC#N)C1 [Example 40, 3-((3R,5S)-3-((5-(1-(difluoromethyl)-1H-pyrazol-3-yl)-1H-pyrrolo[2,3-b]pyridin-4-yl)amino)-5-methylpiperidin-1-yl)-3-oxopropanenitrile]	≤ 10	≤ 100	≤ 10	≤ 10	≤ 100	≤ 10	≤ 100
N#CCC(=O)N1CCC[C@@H](Nc2c(-c3ccsn3)cnc3[nH]ccc23)C1 [Example 41, (R)-3-(3-((5-(isothiazol-3-yl)-1H-pyrrolo[2,3-b]pyridin-4-yl)amino)piperidin-1-yl)-3-oxopropanenitrile]	≤ 10	100 to 1000	≤ 10	≤ 10	≤ 100	≤ 10	100 to 1000
CCOC(=O)c1cnc(-c2cnc3[nH]ccc3c2N[C@@H]2CCCN(C(=O)CC#N)C2)s1 [Example 42, ethyl (R)-2-(4-((1-(2-cyanoacetyl)piperidin-3-yl)amino)-1H-pyrrolo[2,3-b]pyridin-5-yl)thiazole-5-carboxylate]	≤ 10	100 to 1000	≤ 10	≤ 10	≤ 100	≤ 10	100 to 1000
COc1nccc(-c2cnc3[nH]ccc3c2N[C@@H]2CCCN(C(=O)CC#N)C2)n1 [Example 43, (R)-3-(3-((5-(2-methoxypyrimidin-4-yl)-1H-pyrrolo[2,3-b]pyridin-4-yl)amino)piperidin-1-yl)-3-oxopropanenitrile]	10 to 100	> 1000	10 to 100	10 to 100	≤ 100	≤ 10	100 to 1000
N#CCC(=O)N1CCC[C@@H](Nc2c(-c3cccc(N)n3)cnc3[nH]ccc23)C1 [Example 44, (R)-3-(3-((5-(6-aminopyridin-2-yl)-1H-pyrrolo[2,3-b]pyridin-4-yl)amino)piperidin-1-yl)-3-oxopropanenitrile]	10 to 100	> 1000	10 to 100	10 to 100	100 to 1000	≤ 10	100 to 1000
